How the values were obtained:
[1] = molar heat capacity at constant pressure; conditions: 101.33 kPa, Vacuum adiabatic calorimetry
[2] = Adiabatic calorimetry
[3] = Molar enthalpy of transition or fusion; conditions: Crystal; Adiabatic calorimetry

CC(C)O [propan-2-ol]
[1]
Conditions | molar heat capacity at constant pressure [J/K/mol]
85 K, Glass | 51.12
90 K, Glass | 53.51
95 K, Glass | 56.01
100 K, Crystal | 54.18
100 K, Glass | 58.63
105 K, Crystal | 56.19
105 K, Glass | 61.36
110 K, Crystal | 58.21
110 K, Glass | 64.24
115 K, Crystal | 60.23
120 K, Crystal | 62.27
120 K, Metastable liquid | 103.93
125 K, Crystal | 64.31
125 K, Metastable liquid | 103.76
130 K, Crystal | 66.36
130 K, Metastable liquid | 103.51
135 K, Crystal | 68.41
135 K, Metastable liquid | 103.26
140 K, Crystal | 70.47
145 K, Crystal | 72.55
150 K, Crystal | 74.62
155 K, Crystal | 76.7
160 K, Crystal | 78.79
165 K, Crystal | 80.88

[2]
Conditions | Glass transition temperature [°C] | Triple point temperature [K]
Crystal | – | 184.7
Glass | -156.0 | –

Conditions | Molar enthalpy of transition or fusion [kcal/mol]
[3] | 1.27
